Values after ≈ are worked out from the molar mass of the structure shown. Like-named read-outs stand apart in the source and are kept apart here.
Tests used:
[1] = human plasma protein binding (PPB) assay; assay type: in vitro ADME; settings: average, read-out: Human Plasma Protein Binding % Bound Avg (converted)
Description: (§1) We have adapted a previously reported cyclooxygenase enzymatic assay utilizing LCMS quantification of PGE2 as the product of COX-1 and COX2 catalyzed conversion of arachidonic acid to evaluate the binding properties of newly synthesized ligands [Cao, 2011]. These optimized and miniaturized (384-well plates) LCMS-based COX-1 and COX2 enzymatic assays enabled us to quickly evaluate newly synthesized ligands for COX2 binding affinity and selectivity vs COX-1. Using a shorter ligand-enzyme incubation time in the LCMS assay (2 minutes vs 10 minutes) also permitted us to prioritize ligands with faster binding kinetics. Considering the relatively slow on-rate kinetics of known coxibs, due to their 3-step binding mechanism [Marnett, 2009], we believe that optimizing this critical parameter will be key to the successful development of a COX2 PET tracer. Using these enzymatic assays, we have evaluated>200 newly synthesized ligands against COX2 and >20 ligands against COX-1. Another critical property necessary for a good PET radiotracer is to have low non-specific binding (NSB) to increase the free fraction and maximize the signal to noise ratio. This property can be evaluated using in-vitro protein binding assays, and we have now evaluated>50 newly synthesized ligands in mouse, rat and human plasma protein binding (PPB) assays as well as >15 ligands in a mouse brain protein binding (BPB) assay.

[2] = Human Microsome Stability; assay type: in vitro ADME; settings: human microsomes
[3] = Human Plasma Protein Stability (% Remaining); assay type: in vitro ADME; settings: average
[4] = molecular target: T1, human recombinant COX2 (hCOX2) (UniProt P35354); test: LCMS-based COX2 enzymatic inhibition assay (PGE2 quantification); assay type: biochemical; design: COX2 2 minutes pge2/pge2d4 area ratio Avg; other: 2 minutes; readout pge2/pge2d4 area ratio; average; COX2 2 minutes pge2/pge2d4 area ratio Avg; LLE; average LLE; COX2 2 minutes pge2 area (counts) Avg; readout pge2 area (counts); other: 2 min; "ovine COX2 (oCOX2), human recombinant COX2 (hCOX2)"; settings: for COX2 2 minutes pge2/pge2d4 area ratio Avg. LLE / COX2 2 minutes pge2 area (counts) Avg. LLE / COX2 10 minutes pge2 area (counts) Avg. LLE / COX2 30 minutes pge2 area (counts) Avg. LLE: average LLE; for IC50: average
T1 sequence (P35354 1-604): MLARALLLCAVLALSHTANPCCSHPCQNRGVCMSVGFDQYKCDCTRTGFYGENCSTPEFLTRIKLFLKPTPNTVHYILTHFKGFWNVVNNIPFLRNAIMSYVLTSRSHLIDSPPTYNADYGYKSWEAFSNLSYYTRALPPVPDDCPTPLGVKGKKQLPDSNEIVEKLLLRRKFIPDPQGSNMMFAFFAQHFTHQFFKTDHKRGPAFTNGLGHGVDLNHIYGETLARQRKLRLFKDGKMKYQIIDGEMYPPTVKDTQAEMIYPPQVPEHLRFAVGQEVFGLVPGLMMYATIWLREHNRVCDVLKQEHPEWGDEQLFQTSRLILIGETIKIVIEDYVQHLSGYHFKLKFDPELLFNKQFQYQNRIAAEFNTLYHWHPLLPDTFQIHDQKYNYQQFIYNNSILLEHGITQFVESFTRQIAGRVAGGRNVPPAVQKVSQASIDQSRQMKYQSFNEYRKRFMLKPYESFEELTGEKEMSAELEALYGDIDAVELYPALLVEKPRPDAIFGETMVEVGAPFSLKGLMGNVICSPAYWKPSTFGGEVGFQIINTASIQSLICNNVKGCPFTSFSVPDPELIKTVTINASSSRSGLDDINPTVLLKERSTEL
Outline: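 Ovine COX-1 (0.1 μg) or human recombinant COX2 (0.2 μg) in 100 mM Tris.HCl pH 8.0 with hematin and epinephrine, preincubated with inhibitor 10 min at 37 °C. Reaction with 5 μM arachidonic acid stopped after 2 min with HCl; PGE2 quantified by LC-MS-MS. IC50 from 12 concentrations in triplicate.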

[5] = mouse plasma protein binding (PPB) assay; assay type: in vitro ADME; settings: average, read-out: Mouse Plasma Protein Binding % Bound Avg (converted)
Description: as §1

[6] = Rat Plasma Protein Stability (% Remaining); assay type: in vitro ADME; settings: average
PBS Solubility (no DMSO) = assay type: physicochemical; settings: aqueous buffer, thermodynamic from solid, average
[7] = 2 minutes, readout pge2/pge2d4 area ratio
[8] = 2 minutes, readout pge2/pge2d4 area ratio, read-out: COX2 2 minutes pge2/pge2d4 area ratio Avg. IC50
[9] = 2 minutes, readout pge2 area (counts)
[10] = 2 minutes, readout pge2 area (counts), read-out: COX2 2 minutes pge2 area (counts) Avg. IC50
[11] = 10 minutes, readout pge2 area (counts)
[12] = 10 minutes, readout pge2 area (counts), read-out: COX2 10 minutes pge2 area (counts) Avg. IC50
[13] = 30 minutes, readout pge2 area (counts)
[14] = 30 minutes, readout pge2 area (counts), read-out: COX2 30 minutes pge2 area (counts) Avg. IC50

| fraction unbound [1] | Human Microsome Stability % Remaining Avg [2] [%] | Human Plasma Protein Stability % Remaining Avg [3] [%] | COX2 2 minutes pge2/pge2d4 area ratio Avg. LLE [4, 7] | IC50 [4, 8] [nM] | COX2 2 minutes pge2 area (counts) Avg. LLE [4, 9] | IC50 [4, 10] [nM] | fraction unbound [5] | Rat Plasma Protein Stability % Remaining Avg [6] [%] | solubility (PBS Solubility (no DMSO)) [µM] | COX2 10 minutes pge2 area (counts) Avg. LLE [4, 11] | IC50 [4, 12] [nM] | COX2 30 minutes pge2 area (counts) Avg. LLE [4, 13] | IC50 [4, 14] [nM] | Compound |
| --- | --- | --- | --- | --- | --- | --- | --- | --- | --- | --- | --- | --- | --- | --- |
| 0.024 | 19 | 97 | 4.232 | 17.2 | 4.214 | 17.4 | 0.079 | 94.1 | 37 (≈ 12 µg/mL) | – | – | – | – | CS(=O)(=O)c1ccc(-c2cccc(/C=C\c3ccoc3)n2)cc1 [Compound 35, 2-[(Z)-2-(furan-3-yl)ethenyl]-6-(4-methanesulfonylphenyl)pyr] |
| – | – | – | 4.261 | 22.8 | 4.341 | 20 | 0.031 | – | – | 4.996 | 5 | 5.9869 | 0.416 | COc1cc(NCc2cccs2)nc(-c2ccc(S(C)(=O)=O)cc2)c1 [Compound 50] |
| – | 23.8 | – | 5.067 | 76 | 5.168 | 61.6 | – | – | – | 6.195 | 5.57 | 6.4321 | 2.74 | CS(=O)(=O)c1ccc(-c2cncc(NCc3cccs3)n2)cc1 [Compound 98] |
| 0.015 | – | 92.4 | 5.643 | 10.2 | 5.681 | 9.01 | 0.02 | 91.1 | 5.8 (≈ 2.01 µg/mL) | 6.3861 | 1.5 | – | – | CS(=O)(=O)c1ccc(-c2cncc(OCc3cccs3)n2)cc1 [Compound 19] |
| 0.091 | 17 | 100 | – | 17.5 | – | 18.2 | 0.118 | 102.8 | 27 (≈ 8.87 µg/mL) | – | – | – | – | CS(=O)(=O)c1ccc(-c2cccc(NCc3ccco3)n2)cc1 [Compound 36] |
| 0.049 | 24 | 121 | 4.9079 | 9.12 | 4.932 | 8.71 | 0.011 | 97.9 | 10 (≈ 3.29 µg/mL) | – | – | – | – | CS(=O)(=O)c1ccc(-c2cccc(OCc3ccoc3)n2)cc1 [Compound 16] |
| 0.071 | 16 | 102.5 | 4.86 | 21.2 | 4.974 | 15.5 | 0.07 | 105.1 | 88 (≈ 28.9 µg/mL) | – | – | – | – | CS(=O)(=O)c1ccc(-c2cccc(NCc3ccoc3)n2)cc1 [Compound 47, N-(furan-3-ylmethyl)-6-(4-(methylsulfonyl)phenyl)pyridin-2-amine] |
| 0.002 | 38 | 94 | 4.864 | 3.27 | 4.806 | 3.66 | 0.004 | 100 | 1.1 (≈ 0.38 µg/mL) | – | – | – | – | CS(=O)(=O)c1ccc(-c2cccc(OCc3cccs3)n2)cc1 [Compound 1, 2-(4-methanesulfonylphenyl)-6-[(thiophen-2-yl)methoxy]pyridine] |
| 0.029 | 40 | 100 | 4.757 | 16.4 | 4.796 | 15.1 | – | 128 | 0.64 (≈ 0.222 µg/mL) | – | – | – | – | CS(=O)(=O)c1ccc(-c2ccc(F)c(NCc3ccoc3)n2)cc1 [Compound 33] |
| 0.028 | 11 | 97 | 4.592 | 11.4 | 4.619 | 10.7 | – | 104 | 24 (≈ 8.31 µg/mL) | – | – | – | – | CS(=O)(=O)c1ccc(-c2cccc(NCc3ccc(F)o3)n2)cc1 [Compound 23] |
| 0.026 | 36 | 99 | 4.818 | 10.9 | 4.716 | 13.9 | – | 100 | 18 (≈ 6.16 µg/mL) | – | – | – | – | Cc1occc1CNc1cccc(-c2ccc(S(C)(=O)=O)cc2)n1 [Compound 21] |
| 0.022 | – | 95 | 4.653 | 9.62 | 4.644 | 9.92 | 0.033 | 100 | 1.3 (≈ 0.487 µg/mL) | – | – | – | – | COc1ccc(NCc2cccs2)nc1-c1ccc(S(C)(=O)=O)cc1 [Compound 17] |
| 0.027 | 48 | 100 | 4.826 | 16.4 | 4.752 | 18.3 | – | 115 | 12 (≈ 4.16 µg/mL) | – | – | – | – | CS(=O)(=O)c1ccc(-c2cc(F)cc(NCc3ccoc3)n2)cc1 [Compound 34] |

| Compound | fraction unbound [1] | Human Microsome Stability % Remaining Avg [2] [%] | Human Plasma Protein Stability % Remaining Avg [3] [%] | COX2 2 minutes pge2/pge2d4 area ratio Avg. LLE [4, 7] | IC50 [4, 8] [nM] | COX2 2 minutes pge2 area (counts) Avg. LLE [4, 9] | IC50 [4, 10] [nM] | fraction unbound [5] | Rat Plasma Protein Stability % Remaining Avg [6] [%] | solubility (PBS Solubility (no DMSO)) [µM] | COX2 10 minutes pge2 area (counts) Avg. LLE [4, 11] | IC50 [4, 12] [nM] | COX2 30 minutes pge2 area (counts) Avg. LLE [4, 13] | IC50 [4, 14] [nM] |
| --- | --- | --- | --- | --- | --- | --- | --- | --- | --- | --- | --- | --- | --- | --- |
| CS(=O)(=O)c1ccc(-c2ccc(F)c(NCc3ccco3)n2)cc1 [Compound 15] | 0.022 | 45.5 | 108 | 5.1257 | 8.91 | 5.098 | 9.62 | – | 127 | 4.5 (≈ 1.56 µg/mL) | – | – | – | – |
| COc1ncc(NCc2ccoc2)nc1-c1ccc(S(C)(=O)=O)cc1 [Compound 44] | – | – | – | 5.722 | 19.6 | 5.725 | 20.1 | 0.045 | 104.6 | 28 (≈ 10.1 µg/mL) | – | – | – | – |
